# Measurements: PMC7265341, “Quantifying CDK inhibitor selectivity in live cells” (Nature Communications, 2020)
# Where two headings read alike, the source gives them in different places.
# Columns and labels:
# CDK1/Cyclin E1 = CDK1/Cyclin E1 (Homo sapiens, UniProt P06493); experiment: NanoBRET live-cell target engagement, CDK1-NanoLuc/Cyclin E1 in HEK-293; type: binding; details: CDK1/E1, read-out: Inhibition at 10µM (%)
# CDK2/Cyclin E1 = CDK2/Cyclin E1 (Homo sapiens, UniProt P24941); experiment: NanoBRET live-cell target engagement, CDK2-NanoLuc/Cyclin E1 in HEK-293; type: binding; details: CDK2/E1, read-out: Inhibition at 10µM (%)
# CDK4/Cyclin D1 = CDK4/Cyclin D1 (Homo sapiens, UniProt P11802); experiment: NanoBRET live-cell target engagement, NanoLuc-CDK4/Cyclin D1 in HEK-293; type: binding; details: CDK4/D1, read-out: Inhibition at 10µM (%)
# Chain of CDK4/Cyclin D1 (P11802 whole entry): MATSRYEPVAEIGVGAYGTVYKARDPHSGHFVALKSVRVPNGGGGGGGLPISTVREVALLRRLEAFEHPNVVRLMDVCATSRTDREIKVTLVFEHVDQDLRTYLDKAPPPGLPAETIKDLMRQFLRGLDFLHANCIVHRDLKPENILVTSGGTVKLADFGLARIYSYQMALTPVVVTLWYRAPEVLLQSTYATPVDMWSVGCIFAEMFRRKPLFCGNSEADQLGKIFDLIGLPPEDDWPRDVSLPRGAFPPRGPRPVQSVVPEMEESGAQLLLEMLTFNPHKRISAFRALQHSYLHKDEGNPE
# Chain of CDK4/Cyclin D1 (P24385 whole entry partner): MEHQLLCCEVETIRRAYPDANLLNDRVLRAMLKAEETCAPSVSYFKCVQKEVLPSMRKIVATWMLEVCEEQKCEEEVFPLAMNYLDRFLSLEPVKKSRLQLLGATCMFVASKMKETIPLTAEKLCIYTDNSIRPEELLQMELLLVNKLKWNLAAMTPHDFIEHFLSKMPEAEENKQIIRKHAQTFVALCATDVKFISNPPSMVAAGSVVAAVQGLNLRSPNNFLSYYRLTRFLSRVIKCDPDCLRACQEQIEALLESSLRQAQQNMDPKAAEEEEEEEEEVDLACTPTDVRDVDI
# CDK5/CDK5R1 = CDK5/CDK5R1 (Homo sapiens, UniProt Q00535); experiment: NanoBRET live-cell target engagement, CDK5-NanoLuc/CDK5R1 in HEK-293; type: binding; details: CDK5/CDK5R1, read-out: Inhibition at 10µM (%)
# Chain of CDK5/CDK5R1 (Q00535 whole entry): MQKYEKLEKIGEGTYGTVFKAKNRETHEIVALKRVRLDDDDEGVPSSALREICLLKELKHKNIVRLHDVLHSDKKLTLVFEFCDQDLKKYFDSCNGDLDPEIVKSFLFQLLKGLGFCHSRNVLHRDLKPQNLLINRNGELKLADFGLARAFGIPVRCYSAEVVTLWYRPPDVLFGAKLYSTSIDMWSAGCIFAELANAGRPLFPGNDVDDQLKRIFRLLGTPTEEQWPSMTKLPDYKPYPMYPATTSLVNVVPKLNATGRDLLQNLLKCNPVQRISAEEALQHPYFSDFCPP
# Chain of CDK5/CDK5R1 (Q15078 whole entry partner): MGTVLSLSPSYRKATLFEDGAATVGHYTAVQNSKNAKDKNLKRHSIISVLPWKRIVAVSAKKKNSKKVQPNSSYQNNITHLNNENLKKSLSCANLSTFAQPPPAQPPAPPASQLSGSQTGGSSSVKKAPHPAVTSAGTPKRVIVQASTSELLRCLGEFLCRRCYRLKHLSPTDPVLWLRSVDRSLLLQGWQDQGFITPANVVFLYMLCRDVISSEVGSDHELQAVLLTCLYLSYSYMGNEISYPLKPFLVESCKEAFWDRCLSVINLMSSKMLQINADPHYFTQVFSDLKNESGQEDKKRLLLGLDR
# CDK6/Cyclin D1 = CDK6/Cyclin D1 (Homo sapiens, UniProt Q00534); experiment: NanoBRET live-cell target engagement, NanoLuc-CDK6/Cyclin D1 in HEK-293; type: binding; details: CDK6/D1, read-out: Inhibition at 10µM (%)
# Chain of CDK6/Cyclin D1 (Q00534 whole entry): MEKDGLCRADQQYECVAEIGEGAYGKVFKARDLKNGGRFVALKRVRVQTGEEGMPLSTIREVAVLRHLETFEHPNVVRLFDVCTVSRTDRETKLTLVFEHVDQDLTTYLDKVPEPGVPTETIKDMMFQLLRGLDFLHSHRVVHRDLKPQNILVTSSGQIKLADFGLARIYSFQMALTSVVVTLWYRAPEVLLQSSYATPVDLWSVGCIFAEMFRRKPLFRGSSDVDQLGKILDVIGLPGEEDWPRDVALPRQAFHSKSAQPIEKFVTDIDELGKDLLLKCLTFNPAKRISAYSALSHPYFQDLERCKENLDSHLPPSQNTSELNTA
# Chain of CDK6/Cyclin D1 (P24385 whole entry partner): as the sequence (P24385 whole entry partner) above
# CDK7 = CDK7 (Homo sapiens, UniProt P50613); experiment: NanoBRET live-cell target engagement, NanoLuc-CDK7 in HEK-293; type: binding; details: CDK7, read-out: Inhibition at 10µM (%)
# Chain of CDK7 (P50613 whole entry): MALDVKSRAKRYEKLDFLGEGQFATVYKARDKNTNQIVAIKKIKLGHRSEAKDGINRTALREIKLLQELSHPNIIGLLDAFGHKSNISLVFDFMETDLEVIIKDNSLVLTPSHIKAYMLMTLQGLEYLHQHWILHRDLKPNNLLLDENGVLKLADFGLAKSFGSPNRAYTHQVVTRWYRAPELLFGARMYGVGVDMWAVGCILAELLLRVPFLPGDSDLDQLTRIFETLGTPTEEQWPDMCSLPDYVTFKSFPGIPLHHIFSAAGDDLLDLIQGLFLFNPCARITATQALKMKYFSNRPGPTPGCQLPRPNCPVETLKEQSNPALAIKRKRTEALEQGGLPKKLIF
# CDK8/Cyclin C = CDK8/Cyclin C (Homo sapiens, UniProt P49336); experiment: NanoBRET live-cell target engagement, NanoLuc-CDK8/Cyclin C in HEK-293; type: binding; details: for IC50: CDK8/C; for inhibition at 10 µM: read-out: Inhibition at 10µM (%), CDK8/C
# CDK9/Cyclin K = CDK9/Cyclin K (Homo sapiens, UniProt P50750); experiment: NanoBRET live-cell target engagement, NanoLuc-CDK9/Cyclin K in HEK-293; type: binding; details: CDK9/K, read-out: Inhibition at 10µM (%)
# CDK11A/Cyclin L2 = molecular target: T1, CDK11A/Cyclin L2 (Homo sapiens, UniProt Q9UQ88); experiment: NanoBRET live-cell target engagement, CDK11A-NanoLuc/Cyclin L2 in HEK-293; type: binding; details: CDK11a/L2, read-out: Inhibition at 10µM (%)
# T1 sequence (Q9UQ88 1-783): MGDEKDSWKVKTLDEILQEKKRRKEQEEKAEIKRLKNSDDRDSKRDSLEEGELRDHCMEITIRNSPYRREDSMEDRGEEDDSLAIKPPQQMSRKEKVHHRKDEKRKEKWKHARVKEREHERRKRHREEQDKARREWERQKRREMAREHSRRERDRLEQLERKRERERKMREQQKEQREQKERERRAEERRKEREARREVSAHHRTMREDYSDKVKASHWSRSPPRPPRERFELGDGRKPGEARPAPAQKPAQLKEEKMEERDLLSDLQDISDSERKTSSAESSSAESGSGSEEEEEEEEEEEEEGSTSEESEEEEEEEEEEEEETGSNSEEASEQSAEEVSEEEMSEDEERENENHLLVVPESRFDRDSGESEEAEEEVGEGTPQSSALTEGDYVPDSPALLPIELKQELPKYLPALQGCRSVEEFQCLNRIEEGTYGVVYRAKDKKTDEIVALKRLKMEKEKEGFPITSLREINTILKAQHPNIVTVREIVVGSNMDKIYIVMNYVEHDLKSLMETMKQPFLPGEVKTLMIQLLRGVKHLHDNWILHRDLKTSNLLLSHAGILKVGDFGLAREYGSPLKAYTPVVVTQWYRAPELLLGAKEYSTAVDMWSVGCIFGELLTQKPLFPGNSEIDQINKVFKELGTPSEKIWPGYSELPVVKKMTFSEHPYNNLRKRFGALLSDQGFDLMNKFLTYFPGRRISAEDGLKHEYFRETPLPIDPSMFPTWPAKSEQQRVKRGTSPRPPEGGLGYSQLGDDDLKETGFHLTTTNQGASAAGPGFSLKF
# CDK11B/Cyclin L2 = CDK11B/Cyclin L2 (Homo sapiens, UniProt P21127); experiment: NanoBRET live-cell target engagement, CDK11B-NanoLuc/Cyclin L2 in HEK-293; type: binding; details: CDK11b/L2, read-out: Inhibition at 10µM (%)
# Chain of CDK11B/Cyclin L2 (P21127 1-782 isoform P21127-2): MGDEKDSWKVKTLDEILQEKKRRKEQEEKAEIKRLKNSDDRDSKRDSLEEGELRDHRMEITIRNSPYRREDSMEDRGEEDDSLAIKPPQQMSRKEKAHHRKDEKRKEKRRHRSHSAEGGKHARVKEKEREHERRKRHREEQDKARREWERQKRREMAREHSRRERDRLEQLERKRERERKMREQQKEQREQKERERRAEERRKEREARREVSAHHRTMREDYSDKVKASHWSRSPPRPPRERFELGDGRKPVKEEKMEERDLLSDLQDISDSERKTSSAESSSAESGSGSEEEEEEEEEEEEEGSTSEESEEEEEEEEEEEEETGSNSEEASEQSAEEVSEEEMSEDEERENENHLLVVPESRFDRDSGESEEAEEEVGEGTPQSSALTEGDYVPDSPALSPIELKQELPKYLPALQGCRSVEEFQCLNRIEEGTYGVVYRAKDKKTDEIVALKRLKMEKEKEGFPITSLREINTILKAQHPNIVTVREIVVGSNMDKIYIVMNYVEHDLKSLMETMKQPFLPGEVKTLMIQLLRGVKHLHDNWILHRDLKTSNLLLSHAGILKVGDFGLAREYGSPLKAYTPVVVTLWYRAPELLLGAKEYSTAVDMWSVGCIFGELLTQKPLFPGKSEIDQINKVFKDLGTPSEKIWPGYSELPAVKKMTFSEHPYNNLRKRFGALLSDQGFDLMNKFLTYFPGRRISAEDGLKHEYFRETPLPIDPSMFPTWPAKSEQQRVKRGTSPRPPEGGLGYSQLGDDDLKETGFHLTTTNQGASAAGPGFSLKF
# CDK13/Cyclin K = CDK13/Cyclin K (Homo sapiens, UniProt Q14004); experiment: NanoBRET live-cell target engagement, CDK13-NanoLuc/Cyclin K in HEK-293; type: binding; details: CDK13/K, read-out: Inhibition at 10µM (%)
# CDK14/Cyclin Y = CDK14/Cyclin Y (Homo sapiens, UniProt O94921); experiment: NanoBRET live-cell target engagement, CDK14-NanoLuc/Cyclin Y in HEK-293; type: binding; details: CDK14/Y, read-out: Inhibition at 10µM (%)
# CDK15/Cyclin Y = CDK15/Cyclin Y (Homo sapiens, UniProt Q96Q40); experiment: NanoBRET live-cell target engagement, NanoLuc-CDK15/Cyclin Y in HEK-293; type: binding; details: CDK15/Y, read-out: Inhibition at 10µM (%)
# Chain of CDK15/Cyclin Y (Q96Q40 whole entry): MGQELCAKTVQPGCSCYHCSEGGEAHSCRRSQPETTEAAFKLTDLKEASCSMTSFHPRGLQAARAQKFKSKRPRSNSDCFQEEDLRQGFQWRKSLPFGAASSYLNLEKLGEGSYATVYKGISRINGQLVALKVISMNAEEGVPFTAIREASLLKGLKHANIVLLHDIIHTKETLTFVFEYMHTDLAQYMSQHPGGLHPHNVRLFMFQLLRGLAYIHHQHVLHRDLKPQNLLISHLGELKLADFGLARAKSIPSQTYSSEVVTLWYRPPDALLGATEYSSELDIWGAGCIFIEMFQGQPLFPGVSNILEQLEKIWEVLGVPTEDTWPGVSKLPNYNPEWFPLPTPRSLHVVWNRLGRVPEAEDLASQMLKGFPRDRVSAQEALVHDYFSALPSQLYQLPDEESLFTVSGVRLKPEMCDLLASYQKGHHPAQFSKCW
# Chain of CDK15/Cyclin Y (Q8ND76 whole entry partner): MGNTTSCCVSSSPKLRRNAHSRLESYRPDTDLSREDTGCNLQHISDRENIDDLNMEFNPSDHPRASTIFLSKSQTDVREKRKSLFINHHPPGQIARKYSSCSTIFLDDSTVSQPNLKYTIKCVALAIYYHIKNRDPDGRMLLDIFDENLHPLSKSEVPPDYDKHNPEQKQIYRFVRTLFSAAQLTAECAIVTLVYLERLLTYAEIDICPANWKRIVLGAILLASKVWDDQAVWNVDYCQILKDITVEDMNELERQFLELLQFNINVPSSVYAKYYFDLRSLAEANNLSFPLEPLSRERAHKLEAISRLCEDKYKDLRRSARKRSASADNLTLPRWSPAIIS
# CDK16/Cyclin Y = CDK16/Cyclin Y (Homo sapiens, UniProt Q00536); experiment: NanoBRET live-cell target engagement, CDK16-NanoLuc/Cyclin Y in HEK-293; type: binding; details: CDK16/Y, read-out: Inhibition at 10µM (%)
# CDK17/Cyclin Y = CDK17/Cyclin Y (Homo sapiens, UniProt Q00537); experiment: NanoBRET live-cell target engagement, CDK17-NanoLuc/Cyclin Y in HEK-293; type: binding; details: CDK17/Y, read-out: Inhibition at 10µM (%)
# Chain of CDK17/Cyclin Y (Q00537 whole entry): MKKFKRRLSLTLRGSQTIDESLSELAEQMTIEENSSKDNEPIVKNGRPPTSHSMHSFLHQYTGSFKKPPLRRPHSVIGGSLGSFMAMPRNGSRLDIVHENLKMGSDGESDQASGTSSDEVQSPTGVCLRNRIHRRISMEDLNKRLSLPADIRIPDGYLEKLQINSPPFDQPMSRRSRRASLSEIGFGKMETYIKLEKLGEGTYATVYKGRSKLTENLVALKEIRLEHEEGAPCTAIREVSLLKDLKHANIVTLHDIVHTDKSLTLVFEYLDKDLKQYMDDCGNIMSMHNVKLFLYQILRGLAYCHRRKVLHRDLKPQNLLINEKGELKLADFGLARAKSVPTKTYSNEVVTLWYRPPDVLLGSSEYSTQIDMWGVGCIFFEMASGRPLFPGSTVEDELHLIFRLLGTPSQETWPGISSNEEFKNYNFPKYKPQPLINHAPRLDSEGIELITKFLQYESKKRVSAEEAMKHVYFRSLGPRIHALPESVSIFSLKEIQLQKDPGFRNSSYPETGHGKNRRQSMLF
# Chain of CDK17/Cyclin Y (Q8ND76 whole entry partner): as the sequence (Q8ND76 whole entry partner) above
# CDK18/Cyclin Y = CDK18/Cyclin Y (Homo sapiens, UniProt Q07002); experiment: NanoBRET live-cell target engagement, CDK18-NanoLuc/Cyclin Y in HEK-293; type: binding; details: CDK18/Y, read-out: Inhibition at 10µM (%)
# Chain of CDK18/Cyclin Y (Q07002 whole entry): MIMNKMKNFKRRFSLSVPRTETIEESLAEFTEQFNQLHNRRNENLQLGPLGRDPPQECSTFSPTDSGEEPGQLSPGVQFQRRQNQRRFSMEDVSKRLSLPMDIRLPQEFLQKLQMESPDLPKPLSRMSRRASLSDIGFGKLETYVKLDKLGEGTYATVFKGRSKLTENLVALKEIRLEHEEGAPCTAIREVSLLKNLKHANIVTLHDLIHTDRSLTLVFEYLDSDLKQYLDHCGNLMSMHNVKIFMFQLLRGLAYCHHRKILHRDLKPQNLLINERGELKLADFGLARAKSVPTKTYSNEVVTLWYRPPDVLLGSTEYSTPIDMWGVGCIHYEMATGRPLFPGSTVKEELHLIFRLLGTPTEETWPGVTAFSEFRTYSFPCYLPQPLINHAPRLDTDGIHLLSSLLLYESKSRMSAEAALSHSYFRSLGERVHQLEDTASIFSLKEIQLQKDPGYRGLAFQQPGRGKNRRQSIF
# Chain of CDK18/Cyclin Y (Q8ND76 whole entry partner): as the sequence (Q8ND76 whole entry partner) above
# CDK20/Cyclin H = CDK20/Cyclin H (Homo sapiens, UniProt Q8IZL9); experiment: NanoBRET live-cell target engagement, NanoLuc-CDK20/Cyclin H in HEK-293; type: binding; details: CDK20/H, read-out: Inhibition at 10µM (%)
# CDK19/Cyclin C = CDK19/Cyclin C (Homo sapiens, UniProt Q9BWU1); experiment: NanoBRET live-cell target engagement, NanoLuc-CDK19/Cyclin C in HEK-293; details: for IC50: IC50 (nM), CDK19/C; for inhibition at 10 µM: read-out: Inhibition at 10µM (%), CDK19/C
# CDK10/Cyclin L2 = CDK10/Cyclin L2 (Homo sapiens, UniProt Q15131); experiment: NanoBRET live-cell target engagement, CDK10-NanoLuc/Cyclin L2 in HEK-293; details: read-out: Inhibition at 10µM (%), CDK10/L2
# Chain of CDK10/Cyclin L2 (Q15131 whole entry): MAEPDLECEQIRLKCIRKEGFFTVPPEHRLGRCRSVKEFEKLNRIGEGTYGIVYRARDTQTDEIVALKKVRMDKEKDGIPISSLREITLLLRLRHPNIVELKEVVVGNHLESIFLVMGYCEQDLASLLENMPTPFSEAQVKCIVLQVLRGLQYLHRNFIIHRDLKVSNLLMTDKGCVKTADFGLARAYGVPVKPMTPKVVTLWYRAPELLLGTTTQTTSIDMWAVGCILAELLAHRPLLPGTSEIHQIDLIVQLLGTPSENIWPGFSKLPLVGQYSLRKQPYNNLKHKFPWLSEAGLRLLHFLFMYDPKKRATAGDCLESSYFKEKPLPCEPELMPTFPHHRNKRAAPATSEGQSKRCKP
smiles,measurement,setting,value
Cn1cc(-c2ccc(-c3cncc(Cl)c3N3CCC4(CCNC4=O)CC3)cc2)cn1 [CCT251545],inhibition at 10 µM,CDK1/Cyclin E1; average,15.4%
same,inhibition at 10 µM,CDK1/Cyclin E1; experiment 1,21.3%
same,inhibition at 10 µM,CDK1/Cyclin E1; experiment 2,9.4%
same,inhibition at 10 µM,CDK2/Cyclin E1; average,-6.3%
same,inhibition at 10 µM,CDK2/Cyclin E1; experiment 1,-6.4%
same,inhibition at 10 µM,CDK2/Cyclin E1; experiment 2,-6.1%
same,inhibition at 10 µM,CDK4/Cyclin D1; average,6.9%
same,inhibition at 10 µM,CDK4/Cyclin D1; experiment 1,-6.1%
same,inhibition at 10 µM,CDK4/Cyclin D1; experiment 2,19.9%
same,inhibition at 10 µM,CDK5/CDK5R1; average,16.2%
same,inhibition at 10 µM,CDK5/CDK5R1; experiment 1,23.2%
same,inhibition at 10 µM,CDK5/CDK5R1; experiment 2,9.2%
same,inhibition at 10 µM,CDK6/Cyclin D1; average,-5%
same,inhibition at 10 µM,CDK6/Cyclin D1; experiment 1,-11.6%
same,inhibition at 10 µM,CDK6/Cyclin D1; experiment 2,1.5%
same,inhibition at 10 µM,CDK7; average,-8.2%
same,inhibition at 10 µM,CDK7; experiment 1,-5.4%
same,inhibition at 10 µM,CDK7; experiment 2,-11.1%
same,Kd,CDK8/Cyclin C,≤ 10 nM
same,IC50,"CDK8/Cyclin C; IC50 (nM), experiment 1",2 nM
same,IC50,"CDK8/Cyclin C; IC50 (nM), experiment 2",2 nM
same,IC50,"CDK8/Cyclin C; IC50 (nM), experiment 3",9 nM
same,IC50,"CDK8/Cyclin C; IC50 for CDK/cyclin complexes, live HEK-293, 2 h, mean ± S.E.M. (n=3) or mean (n=2)",6 nM
same,inhibition at 10 µM,CDK8/Cyclin C; average,97.8%
same,inhibition at 10 µM,CDK8/Cyclin C; experiment 1,98.8%
same,inhibition at 10 µM,CDK8/Cyclin C; experiment 2,96.9%
same,inhibition at 10 µM,CDK9/Cyclin K; average,15.8%
same,inhibition at 10 µM,CDK9/Cyclin K; experiment 1,9.2%
same,inhibition at 10 µM,CDK9/Cyclin K; experiment 2,22.5%
same,inhibition at 10 µM,CDK11A/Cyclin L2; average,4.8%
same,inhibition at 10 µM,CDK11A/Cyclin L2; experiment 1,-0.8%
same,inhibition at 10 µM,CDK11A/Cyclin L2; experiment 2,10.3%
same,inhibition at 10 µM,CDK11B/Cyclin L2; average,-1%
same,inhibition at 10 µM,CDK11B/Cyclin L2; experiment 1,-3.6%
same,inhibition at 10 µM,CDK11B/Cyclin L2; experiment 2,1.7%
same,inhibition at 10 µM,CDK13/Cyclin K; average,7.2%
same,inhibition at 10 µM,CDK13/Cyclin K; experiment 1,7.3%
same,inhibition at 10 µM,CDK13/Cyclin K; experiment 2,7.1%
same,inhibition at 10 µM,CDK14/Cyclin Y; average,-6%
same,inhibition at 10 µM,CDK14/Cyclin Y; experiment 1,-5.6%
same,inhibition at 10 µM,CDK14/Cyclin Y; experiment 2,-6.4%
same,inhibition at 10 µM,CDK15/Cyclin Y; average,1.4%
same,inhibition at 10 µM,CDK15/Cyclin Y; experiment 1,2.4%
same,inhibition at 10 µM,CDK15/Cyclin Y; experiment 2,0.46%
same,inhibition at 10 µM,CDK16/Cyclin Y; experiment 1,1.8%
same,inhibition at 10 µM,CDK16/Cyclin Y; experiment 2,-12.1%
same,inhibition at 10 µM,CDK17/Cyclin Y; average,1.3%
same,inhibition at 10 µM,CDK17/Cyclin Y; experiment 1,5.9%
same,inhibition at 10 µM,CDK17/Cyclin Y; experiment 2,-3.2%
same,inhibition at 10 µM,CDK18/Cyclin Y; average,10.8%
same,inhibition at 10 µM,CDK18/Cyclin Y; experiment 1,2.3%
same,inhibition at 10 µM,CDK18/Cyclin Y; experiment 2,19.2%
same,inhibition at 10 µM,CDK20/Cyclin H; experiment 1,3.3%
same,inhibition at 10 µM,CDK20/Cyclin H; experiment 2,5.3%
same,Kd,CDK19/Cyclin C,≤ 10 nM
same,IC50,CDK19/Cyclin C; experiment 2,1.5 nM
same,IC50,CDK19/Cyclin C; experiment 3,10 nM
same,inhibition at 10 µM,CDK19/Cyclin C; average,94%
same,inhibition at 10 µM,CDK19/Cyclin C; experiment 1,97.3%
same,inhibition at 10 µM,CDK19/Cyclin C; experiment 2,90.6%
same,inhibition at 10 µM,CDK10/Cyclin L2; average,6.5%
same,inhibition at 10 µM,CDK10/Cyclin L2; experiment 1,-3.1%
same,inhibition at 10 µM,CDK10/Cyclin L2; experiment 2,16.1%
